Assay results from the supplement of paper PMC10307832.

Columns and labels:
Assay in all cases: relative viability (nuclei count vs DMSO), 5 days (fraction); higher = more cells survive
Tipifarnib + Navitoclax = compound: Cn1cncc1[C@@](N)(c1ccc(Cl)cc1)c1ccc2c(c1)c(-c1cccc(Cl)c1)cc(=O)n2C [Tipifarnib] + CC1(C)CCC(c2ccc(Cl)cc2)=C(CN2CCN(c3ccc(C(=O)NS(=O)(=O)c4ccc(N[C@H](CCN5CCOCC5)CSc5ccccc5)c(S(=O)(=O)C(F)(F)F)c4)cc3)CC2)C1 [Navitoclax] (partner 0.5 µM)
In short: (§1)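 Medians of duplicate plates are given as relative viability. That measure is the nuclei count in treated wells divided by the count in vehicle wells. Counts were taken on 4× images of lung cancer cell lines in 1536-well plates, 5 days after pin-tool dosing the day after seeding with one drug alone or a fixed anchor-drug dose plus five library-drug doses (not always all listed) in √10 steps.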

Tipifarnib + Luminespib = compound: Cn1cncc1[C@@](N)(c1ccc(Cl)cc1)c1ccc2c(c1)c(-c1cccc(Cl)c1)cc(=O)n2C [Tipifarnib] + CCNC(=O)c1noc(-c2cc(C(C)C)c(O)cc2O)c1-c1ccc(CN2CCOCC2)cc1 [Luminespib] (partner 0.01 µM)
In short: as §1

Tipifarnib + Foretinib = compound: Cn1cncc1[C@@](N)(c1ccc(Cl)cc1)c1ccc2c(c1)c(-c1cccc(Cl)c1)cc(=O)n2C [Tipifarnib] + COc1cc2c(Oc3ccc(NC(=O)C4(C(=O)Nc5ccc(F)cc5)CC4)cc3F)ccnc2cc1OCCCN1CCOCC1 [Foretinib] (partner 0.25 µM)
In short: as §1

Tipifarnib + Linsitinib = compound: Cn1cncc1[C@@](N)(c1ccc(Cl)cc1)c1ccc2c(c1)c(-c1cccc(Cl)c1)cc(=O)n2C [Tipifarnib] + C[C@]1(O)C[C@@H](c2nc(-c3ccc4ccc(-c5ccccc5)nc4c3)c3c(N)nccn32)C1 [Linsitinib] (partner 1 µM)
In short: as §1

Cell Line	relative viability (Tipifarnib + Navitoclax; first compound 0.01 µM)	relative viability (Tipifarnib + Navitoclax; first compound 0.03162 µM)	relative viability (Tipifarnib + Navitoclax; first compound 0.1 µM)	relative viability (Tipifarnib + Navitoclax; first compound 0.3162 µM)	relative viability (Tipifarnib + Navitoclax; first compound 1 µM)	relative viability (Tipifarnib + Luminespib; first compound 0.01 µM)	relative viability (Tipifarnib + Luminespib; first compound 0.03162 µM)	relative viability (Tipifarnib + Luminespib; first compound 0.1 µM)	relative viability (Tipifarnib + Luminespib; first compound 0.3162 µM)	relative viability (Tipifarnib + Luminespib; first compound 1 µM)	relative viability (Tipifarnib + Foretinib; first compound 0.01 µM)	relative viability (Tipifarnib + Foretinib; first compound 0.03162 µM)	relative viability (Tipifarnib + Foretinib; first compound 0.1 µM)	relative viability (Tipifarnib + Foretinib; first compound 0.3162 µM)	relative viability (Tipifarnib + Foretinib; first compound 1 µM)	relative viability (Tipifarnib + Linsitinib; first compound 0.01 µM)	relative viability (Tipifarnib + Linsitinib; first compound 0.03162 µM)	relative viability (Tipifarnib + Linsitinib; first compound 0.1 µM)	relative viability (Tipifarnib + Linsitinib; first compound 0.3162 µM)	relative viability (Tipifarnib + Linsitinib; first compound 1 µM)
NCI-H520	1.24	1.03	0.917	0.965	0.72	0.235	0.233	0.207	0.207	0.23	0.978	0.614	0.681	0.506	0.351	1.11	0.849	0.987	0.673	0.737
NCI-H596	1.05	0.78	0.72	0.739	0.64	1.08	0.796	0.849	0.828	0.63	1.05	0.857	0.619	0.569	0.53	1	1.03	0.854	0.934	0.844
NCI-H647	0.983	0.813	0.822	0.397	0.37	0.239	0.155	0.102	0.0914	0.0951	1.44	0.78	0.95	0.379	0.534	1.35	1.04	0.649	0.557	0.609
NCI-H727	0.622	0.53	0.421	0.41	0.277	0.341	0.401	0.533	0.462	0.432	1.04	0.875	0.795	0.976	0.944	0.285	0.334	0.321	0.3	0.259
NCI-H838	1.09	0.978	0.932	0.854	0.862	0.41	0.266	0.212	0.21	0.211	1.01	0.805	0.848	0.695	0.75	0.955	0.826	0.684	0.628	0.6
NCI-H1355	0.906	0.791	0.767	0.614	0.628	0.76	0.61	0.525	0.532	0.433	1.12	0.94	0.855	0.694	0.734	0.861	0.896	0.649	0.541	0.69
NCI-H1395	1.17	0.936	0.978	0.835	0.799	0.776	0.72	0.711	0.446	0.452	0.986	0.956	0.814	0.705	0.77	1.43	1.14	0.888	0.869	0.783
NCI-H1437	1.14	1.07	1.06	1.03	0.927	1.25	1.17	1.15	0.913	1.07	1.32	1.29	1.38	0.955	1.29	1.15	0.993	1.04	0.816	0.698
